Laboratory results from patent publication US4590205A, “Antiinflammatory and/or analgesic 2,3-diaryl-5-halo thiophenes” (E. I. Du Pont de Nemours and Company, priority 1984, dated 1986).
Read-outs that look alike come from different tables or passages of the source.

Legend:
[1] = tested on: adjuvant-induced arthritis in rats; experiment: Established adjuvant-induced arthritis in rats (decrease of paw volume); format: in vivo, Charles River Lewis male rats; details: for ED50: Rattus norvegicus, read-out: Adjuvant Arthritis ED50
[2] = tested on: characteristic stretching or writhing syndrome which is indicative of pain induced by phenylquinone; experiment: Phenylquinone writhing test (PQW), analgesic activity; format: in vivo, female white mice; details: Mus musculus, read-out: PQW ED50
Experimental: A test compound suspended in 1% methylcellulose was given orally to fasted (17-21 hours) female white mice, 5-20 animals per double blind test. Aqueous (0.01% phenyl-p-benzoquinone) phenylquinone, 0.20 ml per mouse, was injected intraperitoneally 6 minutes before observations were begun.

[3] = oral gavage, 7 daily doses, ED50% decrease from control paw volume
[4] = oral, fasted mice, effective analgesic dose for 50% of the mice

Row | SMILES | ED50 ([1]; po) [mg/kg] | ED50 ([2]; po) [mg/kg] | ED50 [1, 3] [mg/kg] | ED50 [2, 4] [mg/kg] | % Decrease from control paw volume at indicated daily dose ([1]; daily dose 81 (mg/kg), oral) [%]
1 | CC(=O)Oc1ccccc1C(=O)O [Aspirin, aspirin, reference compound] | 305 | 135 | – | – | –
2 | Fc1ccc(-c2cc(Br)sc2-c2ccc(F)cc2)cc1 [Example 1, 5-Bromo-2,3-bis(4-fluorophenyl)thiophene] | – | – | > 60 | 6.8 | –
3 | COc1ccc(-c2cc(Cl)sc2-c2ccc(OC)cc2)cc1 [Example 2, 5-Chloro-2,3-bis(4-methoxyphenyl)thiophene] | – | – | 4.5 | 2.1 | –
4 | COc1ccc(-c2cc(I)sc2-c2ccc(OC)cc2)cc1 [Example 3, 5-Iodo-2,3-bis(4-methoxyphenyl)thiophene] | – | – | – | < 15 | 46
5 | CSc1ccc(-c2sc(Br)cc2-c2ccc(F)cc2)cc1 [Example 5, 5-bromo-3-(4-fluorophenyl)-2-(4-methylthiophenyl)thiophene] | – | – | 1.4 | > 108 | –
6 | CSc1ccc(-c2cc(Br)sc2-c2ccc(F)cc2)cc1 [Example 6, 5-bromo-2-(4-fluorophenyl)-3-(4-methylthiophenyl)thiophene] | – | – | 0.25 | > 108 | –
7 | Cc1ccc(-c2cc(Br)sc2-c2ccc(C)cc2)cc1 [Example 7] | – | – | > 81 | 2.9 | –
8 | COc1ccc(-c2cc(Br)sc2-c2ccc(SC)cc2)cc1 [Example 8] | – | – | 2.9 | < 15 | –
9 | CS(=O)(=O)c1ccc(-c2sc(Br)cc2-c2ccc(F)cc2)cc1 [Example 9, 5-bromo-3-(4-fluorophenyl)-2-(4-methylsulfonylphenyl)thiophene] | – | – | 0.4 | > 108 | –
10 | CC(C)Cc1ccc(C(C)C(=O)O)cc1 (stereo not drawn) [Ibuprofen, ibuprofen, reference compound] | – | – | 100 | 10 | –
11 | COc1ccc2c(c1)c(CC(=O)O)c(C)n2C(=O)c1ccc(Cl)cc1 [Indomethacin, indomethacin, reference compound] | 0.3 | 0.35 | – | – | –
12 | CCCCC1C(=O)N(c2ccccc2)N(c2ccccc2)C1=O [Phenylbutazone, phenylbutazone, reference compound] | – | – | 10 | 80 | –
